Laboratory results from patent publication US12344597B2, “Alkoxy-substituted pyridinyl derivatives as LPA1 receptor antagonists and their use in the treatment of fibrosis” (IDORSIA PHARMACEUTICALS LTD, priority 2018, dated 2025).

Molecular target: human LPA1 receptor (Homo sapiens (Human), UniProt Q92633)
Test: Beta-arrestin recruitment assay to determine IC50 values for human LPAR1
Type: cell-based
Details: antagonist mode, Tango EDG2-bla U2OS cells, LPA 18:1 500 nM final
Procedure, shortened: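 Tango EDG2-bla U2OS cells: LPA-driven beta-arrestin/TEV protease recruitment releases Gal4-VP16, inducing beta-lactamase reporter read with live-cell substrate. Cells seeded 20 h at 37 °C beforehand. IC50 is antagonist concentration inhibiting 50% of maximal response.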

human LPA1 receptor, sequence (Q92633 whole entry): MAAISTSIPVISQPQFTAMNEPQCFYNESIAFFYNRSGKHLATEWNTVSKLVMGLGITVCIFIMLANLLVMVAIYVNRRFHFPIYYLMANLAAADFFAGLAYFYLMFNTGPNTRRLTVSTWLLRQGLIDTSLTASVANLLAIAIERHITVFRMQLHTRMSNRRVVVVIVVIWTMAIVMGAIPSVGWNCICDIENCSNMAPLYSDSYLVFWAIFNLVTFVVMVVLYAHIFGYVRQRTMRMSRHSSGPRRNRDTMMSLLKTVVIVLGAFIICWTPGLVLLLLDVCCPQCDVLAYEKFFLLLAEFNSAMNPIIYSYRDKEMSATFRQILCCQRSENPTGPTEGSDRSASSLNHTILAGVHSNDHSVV

Row | Structure (SMILES) | IC50
1 | Cc1ccc(NC(=O)C2(c3ccccc3C(C)C)CN(C(=O)[C@@H]3CCC[C@H](C(=O)O)C3)C2)c(OC(F)F)n1 [Ex 51, (1S,3R)-3-(3-((2-(difluoromethoxy)-6-methylpyridin-3-yl)carbamoyl)-3-(2-isopropylphenyl)azetidine-1-carbonyl)cyclohexane-1-carboxylic acid] | 0.08 µM
2 | Cc1ccc(NC(=O)C2(c3ccccc3C(C)C)CN(C(=O)N3CCN(C)CC3)C2)c(OC(F)F)n1 [Ex 17-26, N-(2-(difluoromethoxy)-6-methylpyridin-3-yl)-3-(2-isopropylphenyl)-1-(4-methylpiperazine-1-carbonyl)azetidine-3-carboxamide] | 0.24 µM
3 | CCOC(=O)Cc1coc(CN2CC(C(=O)Nc3ccc(C)nc3OC(F)F)(c3ccccc3C(C)C)C2)n1 [Ex 11-58, ethyl 2-(2-((3-((2-(difluoromethoxy)-6-methylpyridin-3-yl)carbamoyl)-3-(2-isopropylphenyl)azetidin-1-yl)methyl)oxazol-4-yl)acetate] | 0.068 µM
4 | Cc1ccc(NC(=O)C2(c3ccccc3C(C)C)CN(C(=O)CCCC#N)C2)c(OC(F)F)n1 [Ex 12-1, 1-(4-cyanobutanoyl)-N-(2-(difluoromethoxy)-6-methylpyridin-3-yl)-3-(2-isopropylphenyl)azetidine-3-carboxamide] | 0.015 µM
5 | Cc1ccc(NC(=O)C2(c3ccccc3C(C)C)CCN(C(=O)CN(CCO)C(=O)OC(C)(C)C)CC2)c(OC(F)F)n1 [Ex 12-49, tert-butyl (2-(4-((2-(difluoromethoxy)-6-methylpyridin-3-yl)carbamoyl)-4-(2-isopropylphenyl)piperidin-1-yl)-2-oxoethyl)(2-hydroxyethyl)carbamate] | 0.03 µM
6 | Cc1cnc(NC(=O)C2(c3ccccc3C(C)C)CN(S(=O)(=O)CCC(=O)OCc3ccccc3)C2)c(OC(F)F)c1 [Ex 80-1, benzyl 3-((3-((3-(difluoromethoxy)-5-methylpyridin-2-yl)carbamoyl)-3-(2-isopropylphenyl)azetidin-1-yl)sulfonyl)propanoate] | 0.055 µM
7 | COC(=O)c1cccc(CN2CC(C(=O)Nc3ccc(C)nc3OC(F)F)(c3ccccc3C(C)C)C2)n1 [Ex 11-45, methyl 6-((3-((2-(difluoromethoxy)-6-methylpyridin-3-yl)carbamoyl)-3-(2-isopropylphenyl)azetidin-1-yl)methyl)picolinate] | 0.064 µM
8 | Cc1ccc(NC(=O)C2(c3ccccc3C(C)C)CN(Cc3ccnc(C(=O)O)c3)C2)c(OC(F)F)n1 [Ex 11-51, 4-((3-((2-(difluoromethoxy)-6-methylpyridin-3-yl)carbamoyl)-3-(2-isopropylphenyl)azetidin-1-yl)methyl)picolinic acid] | 0.041 µM
9 | CC(C)c1cccnc1C1(C(=O)Nc2ncc(Cl)cc2OC(F)F)CN(S(N)(=O)=O)C1 [Example 81-7, N-(5-chloro-3-(difluoromethoxy)pyridin-2-yl)-3-(3-isopropylpyridin-2-yl)-1-sulfamoylazetidine-3-carboxamide] | 0.005 µM
10 | Cc1ccc(NC(=O)C2(c3ccccc3C(C)C)CN(C(=O)N[C@H](C(=O)O)C(C)C)C2)c(OC(F)F)n1 [Ex 17-7, (3-((2-(difluoromethoxy)-6-methylpyridin-3-yl)carbamoyl)-3-(2-isopropylphenyl)azetidine-1-carbonyl)-L-valine] | 0.026 µM
11 | Cc1ccc(NC(=O)C2(c3ccccc3C(C)C)CN(CC(C)(C)CC(=O)O)C2)c(OC(F)F)n1 [Ex 11-33, 4-(3-((2-(difluoromethoxy)-6-methylpyridin-3-yl)carbamoyl)-3-(2-isopropylphenyl)azetidin-1-yl)-3,3-dimethylbutanoic acid] | 0.008 µM
12 | Cc1ccc(NC(=O)C2(c3ccccc3C(C)C)CN(S(=O)(=O)CCC(=O)NOCc3ccccc3)C2)c(OC(F)F)n1 [Ex 13-28, 1-((3-((benzyloxy)amino)-3-oxopropyl)sulfonyl)-N-(2-(difluoromethoxy)-6-methylpyridin-3-yl)-3-(2-isopropylphenyl)azetidine-3-carboxamide] | 0.11 µM
13 | Cc1ccc(NC(=O)C2(c3ccccc3C(C)C)CN(C(=O)N3CCOCC3)C2)c(OC(F)F)n1 [Ex 17-27, N-(2-(difluoromethoxy)-6-methylpyridin-3-yl)-3-(2-isopropylphenyl)-1-(morpholine-4-carbonyl)azetidine-3-carboxamide] | 0.21 µM
14 | CCOC(=O)c1c[nH]nc1CN1CC(C(=O)Nc2ccc(C)nc2OC(F)F)(c2ccccc2C(C)C)C1 [Ex 11-39, ethyl 3-((3-((2-(difluoromethoxy)-6-methylpyridin-3-yl)carbamoyl)-3-(2-isopropylphenyl)azetidin-1-yl)methyl)-1H-pyrazole-4-carboxylate] | 0.01 µM
15 | Cc1ccc(NC(=O)C2(c3ccccc3C(C)C)CN(C[C@@H](O)CN)C2)c(OC(F)F)n1 [Ex 11-83, (S)-1-(3-amino-2-hydroxypropyl)-N-(2-(difluoromethoxy)-6-methylpyridin-3-yl)-3-(2-isopropylphenyl)azetidine-3-carboxamide] | 0.02 µM
16 | Cc1ccc(NC(=O)C2(c3ccccc3C3CCCC3)CN(C(=O)CC(C)(C)C(=O)O)C2)c(OC(F)F)n1 [Ex 31-3, 4-(3-(2-cyclopentylphenyl)-3-((2-(difluoromethoxy)-6-methylpyridin-3-yl)carbamoyl)azetidin-1-yl)-2,2-dimethyl-4-oxobutanoic acid] | 0.005 µM

Row | Structure (SMILES) | IC50
17 | Cc1ccc(NC(=O)C2(c3ccccc3C3=CCCC3)CNC2)c(OC(F)F)n1 [Ex 26, 3-(2-(cyclopent-1-en-1-yl)phenyl)-N-(2-(difluoromethoxy)-6-methylpyridin-3-yl)azetidine-3-carboxamide] | 0.235 µM
18 | CCOc1ccc(NC(=O)C2(c3ccccc3C(C)C)CN(S(N)(=O)=O)C2)c(OC)n1 [Ex 15-8, N-(6-ethoxy-2-methoxypyridin-3-yl)-3-(2-isopropylphenyl)-1-sulfamoylazetidine-3-carboxamide] | 0.004 µM
19 | Cc1ccc(NC(=O)C2(c3ccccc3C(C)C)CN(C(=O)O[C@H](C)C(=O)O)C2)c(OC(F)F)n1 [Ex 14-5, (R)-2-((3-((2-(difluoromethoxy)-6-methylpyridin-3-yl)carbamoyl)-3-(2-isopropylphenyl)azetidine-1-carbonyl)oxy)propanoic acid] | 0.009 µM
20 | Cc1ccc(NC(=O)C2(c3ccccc3C(C)C)CN(C(=O)C3(C(=O)O)CC3)C2)c(OC(F)F)n1 [Ex 12-64, 1-(3-((2-(difluoromethoxy)-6-methylpyridin-3-yl)carbamoyl)-3-(2-isopropylphenyl)azetidine-1-carbonyl)cyclopropane-1-carboxylic acid] | 0.019 µM
21 | Cc1ccc(NC(=O)C2(c3ccccc3C(C)C)CN(Cc3ccc(C(=O)O)o3)C2)c(OC(F)F)n1 [Ex 11-57, 5-((3-((2-(difluoromethoxy)-6-methylpyridin-3-yl)carbamoyl)-3-(2-isopropylphenyl)azetidin-1-yl)methyl)furan-2-carboxylic acid] | 0.012 µM
22 | Cc1ccc(NC(=O)C2(c3ccccc3C(C)C)CN(Cc3ccnn3C)C2)c(OC(F)F)n1 [Ex 11-22, N-(2-(difluoromethoxy)-6-methylpyridin-3-yl)-3-(2-isopropylphenyl)-1-((1-methyl-1H-pyrazol-5-yl)methyl)azetidine-3-carboxamide] | 0.108 µM
23 | CCOC(=O)/C=C\C(=O)N1CC(C(=O)Nc2ccc(C)nc2OC(F)F)(c2ccccc2C(C)C)C1 [Ex 12-76, ethyl (Z)-4-(3-((2-(difluoromethoxy)-6-methylpyridin-3-yl)carbamoyl)-3-(2-isopropylphenyl)azetidin-1-yl)-4-oxobut-2-enoate] | 0.007 µM
24 | COC(=O)[C@H]1C[C@H]1C(=O)N1CC(C(=O)Nc2ccc(C)nc2OC(F)F)(c2ccccc2C(C)C)C1 [Ex 12-94, methyl (1S,2R)-2-(3-((2-(difluoromethoxy)-6-methylpyridin-3-yl)carbamoyl)-3-(2-isopropylphenyl)azetidine-1-carbonyl)cyclopropane-1-carboxylate] | 0.051 µM
25 | CCCc1ccccc1C1(C(=O)Nc2ccc(C)nc2OC(F)F)CN(C(=O)CC(C)(C)C(=O)O)C1 [Ex 31-7, 4-(3-((2-(difluoromethoxy)-6-methylpyridin-3-yl)carbamoyl)-3-(2-propylphenyl)azetidin-1-yl)-2,2-dimethyl-4-oxobutanoic acid] | 0.008 µM
26 | Cc1ccc(NC(=O)C2(c3ccccc3C(C)C)CN(C(=O)CC3(C(=O)O)CCOC3)C2)c(OC(F)F)n1 (stereo not shown) [Ex 12-123, 3-(2-(3-((2-(difluoromethoxy)-6-methylpyridin-3-yl)carbamoyl)-3-(2-isopropylphenyl)azetidin-1-yl)-2-oxoethyl)tetrahydrofuran-3-carboxylic acid] | 0.041 µM
27 | COC(=O)c1[nH]ncc1S(=O)(=O)N1CC(C(=O)Nc2ccc(C)nc2OC(F)F)(c2ccccc2C(C)C)C1 [Ex 13-22, methyl 4-((3-((2-(difluoromethoxy)-6-methylpyridin-3-yl)carbamoyl)-3-(2-isopropylphenyl)azetidin-1-yl)sulfonyl)-1H-pyrazole-5-carboxylate] | 0.27 µM
28 | Cc1ccc(NC(=O)C2(c3cc(F)ccc3C(C)C)CNC2)c(OC(F)F)n1 [Ex 37, N-(2-(difluoromethoxy)-6-methylpyridin-3-yl)-3-(5-fluoro-2-isopropylphenyl)azetidine-3-carboxamide] | 0.112 µM
29 | Cc1ccc(NC(=O)C2(c3ccccc3C(C)C)CN(CC(N)=O)C2)c(OC(F)F)n1 [Ex 11-15, 1-(2-amino-2-oxoethyl)-N-(2-(difluoromethoxy)-6-methylpyridin-3-yl)-3-(2-isopropylphenyl)azetidine-3-carboxamide] | 0.022 µM
30 | Cc1ccc(NC(=O)C2(c3nccnc3C(C)C)CN(S(N)(=O)=O)C2)c(OC(F)F)n1 [Ex 69, N-(2-(difluoromethoxy)-6-methylpyridin-3-yl)-3-(3-isopropylpyrazin-2-yl)-1-sulfamoylazetidine-3-carboxamide] | 0.027 µM
31 | CCOC(=O)C(C)(C)NC(=O)N1CC(C(=O)Nc2ccc(C)nc2OC(F)F)(c2ccccc2C(C)C)C1 [Ex 17-12, ethyl 2-(3-((2-(difluoromethoxy)-6-methylpyridin-3-yl)carbamoyl)-3-(2-isopropylphenyl)azetidine-1-carboxamido)-2-methylpropanoate] | 0.011 µM
